Measurements from patent publication US20240024302A1, “SOLUBLE EPOXIDE HYDROLASE (sEH) INHIBITORS AND DUAL COX/sEH INHIBITORS FOR THE TREATMENT OF ARRHYTHMOGENIC CARDIOMYOPATHY” (BETH ISRAEL DEACONESS MEDICAL CENTER, INC., priority 2020, published 2024).

Assays:
[1] = Rat PK, single oral gavage; type: in vivo; conditions: rat, in vivo, single dose 0.1 mg/kg; for AUC: PEG 300; for half-life: read-out: Rat T1/2 (converted)
[2] = Mouse PK, single oral gavage; conditions: mouse, in vivo, po, 0.3 mg/kg, single dose 0.3 mg/kg; for AUC: Mouse AUC, 20% PEG400 in oleic acid-rich triglyceride; for AUC / Cmax / Tmax: oral gavage; for Cmax: Mouse Cmax; for half-life: Mouse T1/2, oral gavage; for Tmax: Mouse Tmax

Structure (SMILES)	Cmax [1] [nM]	Tmax [1] [h]	AUC [1] [µM·h]	half-life [1] [h]	AUC [2] [µM·h]	Cmax [2] [nM]	half-life [2] [h]	Tmax [2] [h]
O=C(Nc1ccc(OC(F)(F)F)cc1)NC1CCN(C(=O)C2CCOCC2)CC1	23 ± 1	4.4 ± 0.2	0.234 ± 0.019	3.7 ± 0.6	5.06	460	2.8	4.1
O=C(Nc1ccc(OC(F)(F)F)cc1)NC1CCN(C(=O)c2ccoc2)CC1	–	–	–	–	2.93	146	5.1	7.3
O=C(Nc1ccc(OC(F)(F)F)cc1)NC1CCN(C(=O)[C@@H]2CCOC2)CC1	–	–	–	–	0.656	50	3.4	6.2
O=C(Nc1ccc(OC(F)(F)F)cc1)NC1CCN(C(=O)C2=COCC2)CC1	–	–	–	–	0.67	58	2.9	4.2
Cc1occc1C(=O)N1CCC(NC(=O)Nc2ccc(OC(F)(F)F)cc2)CC1	133 ± 4	2.3 ± 0.4	1.08 ± 0.089	6 ± 0.7	9.99	409	6.2	9
Cc1ccoc1C(=O)N1CCC(NC(=O)Nc2ccc(OC(F)(F)F)cc2)CC1	–	–	–	–	4.56	294	3.9	5.7
O=C(Nc1ccc(OC(F)(F)F)cc1)NC1CCN(C(=O)C2CCCOC2)CC1 (stereo not drawn)	–	–	–	–	0.634	31	5.3	7.6
O=C(Nc1ccc(C(F)(F)F)cc1)NC1CCN(C(=O)C2CCOCC2)CC1	54 ± 3	2.5 ± 0.2	0.391 ± 0.031	3 ± 0.4	5.26	376	3.6	5.2
O=C(Nc1ccc(C(F)(F)F)cc1)NC1CCN(C(=O)c2ccoc2)CC1	308 ± 16	3.4 ± 0.3	3.55 ± 0.271	4.4 ± 0.4	0.794	28	4.2	7.3
O=C(Nc1ccc(C(F)(F)F)cc1)NC1CCN(C(=O)[C@@H]2CCOC2)CC1	–	–	–	–	0.729	154	1.2	1.7
O=C(Nc1ccc(C(F)(F)F)cc1)NC1CCN(C(=O)C2=COCC2)CC1	–	–	–	–	0.875	78	2.8	4.1
O=C(Nc1ccc(C(F)(F)F)cc1)NC1CCN(C(=O)C2CCCOC2)CC1 (stereo not drawn)	–	–	–	–	3.17	199	4.1	5.9
O=C(Nc1ccc(C(F)(F)F)cc1)NC1CCN(C(=O)c2cc[nH]c2)CC1	–	–	–	–	0.083	11	2	2.8
O=C(Nc1ccc(OC(F)(F)F)cc1)NC1CCN(C(=O)C2CCOC2)CC1 (stereo not drawn)	–	–	–	–	12.6	703	4.6	6.6
O=C(Nc1ccc(C(F)(F)F)cc1)NC1CCN(C(=O)C2CCOC2)CC1 (stereo not drawn)	–	–	–	–	4.73	342	6.9	6.8
CC(C)C(=O)N1CCC(NC(=O)Nc2ccc(OC(F)(F)F)c(F)c2)CC1	84 ± 5	2.8 ± 0.3	0.637 ± 0.085	2.7 ± 0.4	4.78	162	4.8	5.9
CC(C)C(=O)N1CCC(NC(=O)Nc2ccc(C(F)(F)F)c(F)c2)CC1	38 ± 3	1.8 ± 0.2	0.212 ± 0.022	2.4 ± 0.3	9.65	518	6.2	7.9
CC(C)C(=O)N1CCC(CC(=O)Nc2ccc(OC(F)(F)F)c(F)c2)CC1	17 ± 2	1.6 ± 0.1	0.066 ± 0.011	1.2 ± 0.2	–	–	–	–
